The test system of assay [1] is 5-lipoxygenase. The assay is described as follows: Ex vivo inhibition of A-23187-stimulated LTB4 formation in whole blood after oral administration. The note with it: dose of about 1.0 mg/kg p.o. to the dog. The procedure: Furthermore, the inhibition of 5-lipoxygenase is determined after oral or i.v. administration to rats or dogs by measuring ex vivo in whole blood the decrease of A-23187-stimulated LTB4 formation as compared to non-treated control animals.

The target of assay [2] is T1, 5-lipoxygenase (Cavia porcellus, UniProt A0A286X958).
T1 construct: A-23187-stimulated guinea pig polymorphonuclear leukocytes; endogenous in cells; host or cells: guinea pig polymorphonuclear leukocytes
T1 sequence (A0A286X958 1-674): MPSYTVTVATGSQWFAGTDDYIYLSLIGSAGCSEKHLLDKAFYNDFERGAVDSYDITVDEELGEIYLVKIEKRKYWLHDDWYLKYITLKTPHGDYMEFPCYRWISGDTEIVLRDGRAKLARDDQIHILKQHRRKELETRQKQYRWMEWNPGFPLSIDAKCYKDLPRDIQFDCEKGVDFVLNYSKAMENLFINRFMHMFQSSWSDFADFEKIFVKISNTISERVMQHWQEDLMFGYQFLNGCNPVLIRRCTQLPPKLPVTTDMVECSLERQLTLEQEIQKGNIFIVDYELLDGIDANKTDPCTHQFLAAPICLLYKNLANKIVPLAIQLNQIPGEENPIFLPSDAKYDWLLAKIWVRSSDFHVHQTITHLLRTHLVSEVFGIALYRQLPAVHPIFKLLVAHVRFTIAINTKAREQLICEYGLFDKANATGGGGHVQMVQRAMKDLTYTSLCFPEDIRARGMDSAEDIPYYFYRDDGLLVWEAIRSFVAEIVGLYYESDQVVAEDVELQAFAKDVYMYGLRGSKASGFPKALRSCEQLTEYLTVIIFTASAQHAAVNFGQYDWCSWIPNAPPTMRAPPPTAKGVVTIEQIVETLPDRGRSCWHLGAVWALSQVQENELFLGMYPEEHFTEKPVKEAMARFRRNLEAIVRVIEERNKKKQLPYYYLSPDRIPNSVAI
The assay is described as follows: Inhibition of 5-HETE and LTB4 synthesis in A-23187-stimulated guinea pig polymorphonuclear leukocytes. It is filed as cell-based. Particulars: read-out: IC50, inhibition of the formation of 5-HETE and leukotriene B4 (LTB4). The procedure: 5-Lipoxygenase inhibition is determined e.g. by measuring the percent inhibition of the synthesis of 5-HETE [(5S)-5-hydroxy-6,8,11,14-eicosa-tetraenoic acid] and leukotriene B4 (LTB4, 5,12-dihydroxy-6,8, 10, 14-eicosatetraenoic acid) in A-23187-stimulated guinea pig polymorphonuclear leukocytes, essentially according to radiometric thin-layer chromatographic assays described by Walker and Dawson (J. Pharm. Pharmacol. 31: 778, 1979) and Jakschik and Lee (Nature 287: 51, 1980) to measure the formation of 5-HETE and LTB4 -like products from ^14 C-arachidonic acid. IC50 values are determined graphically as the concentration of test compound at which the synthesis of 5-HETE and LTB4 -like products is reduced to 50 % of their respective control values.

We go through one compound from US5334600A, “Isoquinolyl substituted hydroxylamine derivatives” (Ciba-Geigy Corporation, priority 1993, dated 1994).

In the case of `NC(=O)N(O)CCOc1ccc2c(c1)CCN(CCCc1ccccc1)C2=O` [1(f), 2-(3-phenylpropyl)-6-[2-(N-aminocarbonyl-N-hydroxyamino)ethoxy]-1-oxo-1,2,3,4-tetrahydroisoquinoline], in the assay with 5-lipoxygenase [1], the “inhibition of LTB4 formation as determined ex vivo” value is listed as “significant inhibition”. For the same compound, the IC50 (in general, the concentration at which inhibition is half-maximal) on 5-lipoxygenase [2] is approximately 500 nM.
